Literature values in patent US20160361293A1, “NANOSTRUCTURED COMPOSITION COMPRISING INDOMETHACINE, ITS PHARMACEUTICALLY ACCEPTABLE SALTS AND CO-CRYSTALS AND PROCESS FOR THE PREPARATION THEREOF” (DARHOLDING KFT., priority 2014, published 2016).
Converted amounts (≈) assume the structure as drawn.

Key:
[1] = in vivo
[2] = not given; remark: listed apart in the source

COc1ccc2c(c1)c(CC(=O)O)c(C)n2C(=O)c1ccc(Cl)cc1 [Indomethacin, 1-(4-chlorobenzoyl)-5-methoxy-2-methyl-1H-indole-3-acetic acid]
stability in neutral or slightly acidic media (neutral or slightly acidic media): stable
stability in strong alkali (strong alkali): decomposes
mean half-life [1]: about 4.5 hours
solubility in alcohol ([2]; alcohol, in words): sparingly soluble
water solubility ([2]; water): 50 µg/mL (≈ 140 µM)
solubility in water ([2]; water, in words): practically insoluble
